Results published in US20260364028A1, “COMBINATION TREATMENTS FOR DEPRESSION AND OTHER DISORDERS” (NEURAWELL THERAPEUTICS, priority 2023, published 2026).
Where two headings read alike, the source gives them in different places.

Columns and labels:
[1] = plasma, cited from earlier work
[2] = tested on: tyramine pressor response; conditions: cited from earlier work; for TSF High / TSF Low: literature-reported
[3] = tested on: systolic or diastolic blood pressure; conditions: cited from earlier work
[4] = molecular target: T1, Monoamine Oxidase MAO-B (Homo sapiens, UniProt P27338); assay: Monoamine oxidase MAO-B inhibition enzyme assay (kynuramine, spectrofluorimetric); assay type: biochemical; conditions: for inhibition at 2 µM: read-out: % MAO-B inhibition
T1 construct: host or cells: insect cells (recombinant)
T1 sequence (P27338 1-520): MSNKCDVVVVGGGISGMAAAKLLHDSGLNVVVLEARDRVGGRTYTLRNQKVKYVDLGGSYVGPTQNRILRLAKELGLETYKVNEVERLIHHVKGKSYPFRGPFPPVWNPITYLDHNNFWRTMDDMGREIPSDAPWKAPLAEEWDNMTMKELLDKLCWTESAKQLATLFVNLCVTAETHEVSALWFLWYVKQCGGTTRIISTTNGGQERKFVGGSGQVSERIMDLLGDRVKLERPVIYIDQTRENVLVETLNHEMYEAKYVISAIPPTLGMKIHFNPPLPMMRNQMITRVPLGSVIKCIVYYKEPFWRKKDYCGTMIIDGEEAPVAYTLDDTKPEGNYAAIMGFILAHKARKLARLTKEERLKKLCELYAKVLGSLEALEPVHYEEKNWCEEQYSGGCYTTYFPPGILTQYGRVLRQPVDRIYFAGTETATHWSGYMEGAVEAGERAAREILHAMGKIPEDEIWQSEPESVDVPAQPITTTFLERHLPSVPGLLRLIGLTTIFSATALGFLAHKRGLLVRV

[5] = molecular target: T2, Monoamine Oxidase MAO-A (Homo sapiens, UniProt P21397); assay: Monoamine oxidase MAO-A inhibition enzyme assay (kynuramine, spectrofluorimetric); assay type: biochemical; conditions: for interference with the inhibition of MAO-A by phenelzine (in words): beta blocker in presence of phenelzine […] nM and 150 nM; for inhibition at 2 µM / inhibitory activity of MAO-A (in words): beta blocker alone; for inhibitory activity of MAO-A (in words): significant = ≥50% inhibition
T2 construct: host or cells: insect cells (recombinant)
T2 sequence (P21397 1-527): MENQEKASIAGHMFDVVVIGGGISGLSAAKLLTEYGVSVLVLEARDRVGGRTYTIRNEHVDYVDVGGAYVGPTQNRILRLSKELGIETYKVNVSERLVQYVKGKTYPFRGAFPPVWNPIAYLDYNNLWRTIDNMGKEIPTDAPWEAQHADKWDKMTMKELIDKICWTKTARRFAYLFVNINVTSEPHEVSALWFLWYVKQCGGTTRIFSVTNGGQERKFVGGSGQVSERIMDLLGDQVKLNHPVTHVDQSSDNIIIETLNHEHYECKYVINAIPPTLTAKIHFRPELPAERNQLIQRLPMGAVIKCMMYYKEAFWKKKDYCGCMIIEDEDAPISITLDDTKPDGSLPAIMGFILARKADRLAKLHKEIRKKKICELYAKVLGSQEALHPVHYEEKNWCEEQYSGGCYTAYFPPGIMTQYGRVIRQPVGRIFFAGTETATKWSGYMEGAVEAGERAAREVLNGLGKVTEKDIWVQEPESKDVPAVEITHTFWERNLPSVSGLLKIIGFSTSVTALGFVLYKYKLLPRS

[6] = tested on: depression; conditions: meta-analysis of 14 antidepressants and placebo; cited from earlier work
[7] = typical circumstances, no MAO inhibition; cited from earlier work
[8] = Tranylcypromine 20 mg/d with placebo (no beta blocker)
[9] = Phenelzine 60 mg/d with placebo (no beta blocker)
[10] = Selegiline 10 mg/d with placebo (no beta blocker)

Row | SMILES | half-life [1] | inhibitory activity of MAO-B (in words) [4] | interference with the inhibition of MAO-B by phenelzine (in words) [4] | inhibition at 2 µM [4] | interference with the inhibition of MAO-A by phenelzine (in words) [5] | inhibition at 2 µM ([5]; role: inhibitor) | inhibitory activity of MAO-A (in words) ([5]; role: inhibitor) | other results
1 | N[C@@H]1C[C@H]1c1ccccc1 (relative stereo) [Tranylcypromine] | approximately 2.5 hours |  |  |  |  |  |  | TSF High [2, 8]: 55; TSF Low [2, 8]: 30; TSF ([2]; tranylcypromine at 20 mg/day): 55; patients with significant transient blood pressure increases (20 mmHg or more) immediately after taking [3]: approximately 50%
2 | CC(C)NCC(O)COc1ccc(COCCOC(C)C)cc1 (centres unmarked) [Bisoprolol] | 9 to 12 h | no significant inhibitory activity | no interference was observed | 13% | no interference was observed | -5% | no significant inhibitory activity | 
3 | COc1ccccc1OCCNCC(O)COc1cccc2[nH]c3ccccc3c12 (centres unmarked) [Carvedilol] |  | no significant inhibitory activity | no interference was observed | 23% | no interference was observed | 4% | no significant inhibitory activity | 
4 | COC(=O)CCc1ccc(OCC(O)CNC(C)C)cc1 (centres unmarked) [Esmolol] | approximately 9 minutes |  |  |  |  |  |  | 
5 | Cc1cc(C(=O)NNCc2ccccc2)no1 [Isocarboxazide] |  |  |  |  |  |  |  | % MAO-B inhibition [4]: 98%; % MAO-A inhibition ([5]; role: inhibitor, isocarboxazid 10 μM): 91%
6 | NNCCc1ccccc1 [Phenelzine] | approximately 11.6 hours |  |  |  |  |  |  | efficacy compared to all other treatments (in words) [6]: superior efficacy compared to all other treatments; TSF High [2, 9]: 30; TSF Low [2, 9]: 9; TSF ([2]; phenelzine at 45 mg/day): 13.3; patients with significant transient blood pressure increases (20 mmHg or more) immediately after taking [3]: approximately 50%
7 | CC(C)NCC(O)COc1cccc2[nH]ccc12 (centres unmarked) [Pindolol, 1-(Indol-4-yloxy)-3-(isopropylamino)-2-propanol] | 3 to 4 h | no significant inhibitory activity | no interference was observed | -5% | no interference was observed | -1% | no significant inhibitory activity | 
8 | C#CCN(C)[C@H](C)Cc1ccccc1 [Selegiline] |  |  |  |  |  |  |  | half-life ([1]; human): approximately 10 hours; TSF High [2, 10]: 4; TSF Low [2, 10]: 3
9 | NCCc1ccc(O)cc1 [tyramine] |  |  |  |  |  |  |  | dietary tyramine ending up in systemic circulation [7]: less than 1%
